Results on nine compounds are retold here after US20160031868A1, “BENZIMIDAZOLONE DERIVATIVES AS BROMODOMAIN INHIBITORS” (GILEAD SCIENCES, INC., priority 2013, published 2016).

The target of data set [1] is T1, BRD4-2 (Homo sapiens, UniProt O60885).
T1 construct: made in house; host or cells: Escherichia coli
The data set is described as follows: Biochemical HTRF (TR-FRET) assay: BRD4-2 binding to acetylated histone H4 peptide. Conditions: 200 nM H4 peptide, 120 nM BRD4-2, 60 min at 25 °C; geometric mean; read-out: IC50 HTBS BRD4-2 HTRF. How it is done:
(§1) Binding of the two tandem bromodomains, BRD4 I and BRD4—2, to an acetylated histone H4 peptide were measured using a homogeneous time resolved fluorescence resonance energy transfer (TR-FRET) assay. The synthetic peptide containing amino acids 1-18 of histone H4 was acetylated at lysine 5, 8, 12, 16 and conjugated to biotin ([…]-GSGSK-biotin) was purchased from Millipore. BRD4_I and BRD4—2 were expressed and purified from Escherichia coli as N-terminal His6-tagged proteins. An XL665 labeled anti-His antibody (Cisbio) was used to specifically bind BRD4 and a cryptate labeled streptavidin protein was used because it specifically recognized the biotinylated H4 peptide. […] Assays were performed in 50 mM Hepes (pH 7.5), 150 mM NaCl, 0.1 mg/ml BSA, 0.01% (v/v) Brij, 0.5% (v/v) DMSO and 200 nM H4 peptide at the following concentrations for each BRD4 isoform: 60 nM BRD4—1 and 120 nM BRD4—2. After an assay reaction time of 60 minutes at 25° C., binding was measured with 2 nM cryptate labeled streptavidin and 10 nM anti-His-XL665 antibody. TR-FRET signal was detected on an Envision plate reader (Ex: 320 nm; Em: 615/665 nm; 100 μs delay and 200 μs read window). Data were normalized based on a positive (2 μM I-BET) and negative (DMSO) controls and IC50 values were calculated from the fit of the dose-response curves to a four-parameter equation. All IC50 values represent geometric mean values of a minimum of four determinations. These assays generally produced results within 3-fold of the reported mean.
For orientation: TR-FRET usually uses a lanthanide donor and a delayed reading to cut background.

The nature of data set [2]: MT-4 proliferation assay in 384-well format (Cell Titer Glo). It counts as cell-based, human. Particulars: human, MT-4 cells, read-out: CC50 MT4 384. As to the method: Compounds were tested in a standardized high-throughput 384-well assay format. Each compound was serially diluted 3-fold in 100% DMSO in polypropylene 384-well plates using a Biomek FX Workstation, and 0.4 μL compound added to an assay plate containing 40 μL RPMI media. Compounds were arranged in a horizontal pattern, with 10 concentrations per compound, and 8 compounds added per plate. Due to low DMSO tolerability, the final DMSO concentration never exceeded 0.5% (v/v). Each assay plate contained 10 μM Puromycin and 0.5% DMSO in RPMI-1640 as positive and negative controls respectively. MT-4 cells (HTLV-1 transformed, human T lymphoblastoid cells, NIH Aids Reagent program) were added in volumes of 35 μL per well and 2,000 cells per well using a Biotek uFlow Workstation (Biotek, Winooski, Vt.), and the plates subsequently incubated for 5 days at 37° C. in an incubator set at 5% CO2 and 90% humidity.
After 5 days, 22 μL Cell Titer Glo (Promega) was added to the assay plates with a Biotek uFlow Workstation. Plates were subsequently placed on a Perkin Elmer Envision Plate Reader for 5 minutes before the luminescence signal was read. CC50 values were calculated from the compound concentration that caused a 50% decrease in luminescence signal, a measure of toxicity, and calculated by non-linear regression using Pipeline Pilot software (Accelrys, San Diego, Calif.).
A general note: ATP-based viability assays read luminescence as a measure of living cells.

Data set [3] addresses T2, BRD4-1 (Homo sapiens, UniProt O60885).
T2 construct: made in house; host or cells: Escherichia coli
The experiment in a line: Biochemical HTRF (TR-FRET) assay: BRD4-1 binding to acetylated histone H4 peptide. Particulars: 200 nM H4 peptide, 60 nM BRD4-1, 60 min at 25 °C; geometric mean; read-out: IC50 HTBS BRD4-1 HTRF. As to the method:
as §1

The target in data set [4] is T2, BRD4-1. The data set is described as follows: Biochemical ALPHA assay: binding of BRD4_1 to acetylated histone H4 peptide. Conditions: 200 nM H4 peptide, 15 nM BRD4_1, 60 min at 25 °C; geometric mean of min. four determinations. As to the method:
Binding of the bromodomain BRD4_I to an acetylated histone H4 peptide was measured using a bead based Amplified Luminescent Proximity Homogeneous Assay (ALPHA). The synthetic peptide containing amino acids 1-18 of histone H4 was acetylated at lysine 5, 8, 12, 16 and conjugated to biotin ([…]-GSGSK-biotin) was purchased from Millipore. BRD4_I was expressed and purified from Escherichia coli as an N-terminal Hiss-tagged protein. Nickel-Chelate ALPHA acceptor beads (Perkin Elmer) were used to specifically bind BRD4—1 and ALPHA streptavidin donor beads (Perkin Elmer) were used because they specifically recognized the biotinylated H4 peptide. […] Assays were performed in 50 mM Hepes (pH 7.5), 150 mM NaCl, 0.1 mg/ml BSA, 0.01% (v/v) Brij, 0.5% (v/v) DMSO, 200 nM H4 peptide and 15 nM of BRD4—1 protein. After an assay reaction time of 60 minutes at 25° C., binding was measured with 20 µg/ml streptavidin donor beads and 20 μg/ml nickel-chelate acceptor beads. ALPHA signal was detected on an Envision plate reader ([…]; Em: 570 nm; Ex time: 180 ms). Data were normalized based on a positive (2 μM I-BET) and negative (DMSO) controls and IC50 values were calculated from the fit of the dose-response curves to a four-parameter equation. All IC50 values represent geometric mean values of a minimum of four determinations. These assays generally produced results within 3-fold of the reported mean.

Data set [5] has as its target T2, BRD4-1. The data set is described as follows: BRD4-1 Ligand KI assay (TR-FRET displacement of Cy5 labeled probe). It counts as binding. How it is done: Binding of the two tandem bromodomains, BRD4-I and BRD4-2, to a Cy5 labeled probe/ligand (Compound 201-A) were measured using a homogeneous time resolved fluorescence resonance energy transfer (TR-FRET) assay.
(§2) The labeled ligand specifically binds BRD4-1 and BRD4-2 and can be displaced by a small molecule inhibitor that shares a similar or overlapping binding site. BRD4-I and BRD4-2 were expressed and purified from Escherichia coli as N-terminal His6-tagged proteins. A Eu-cryptate labeled anti-His antibody (Perkin Elmer) was used to specifically bind BRD4. […] Assays were performed in 50 mM Hepes (pH 7.5), 150 mM NaCl, 0.1 mg/ml BSA, 0.01% (v/v) Brij, 0.5% (v/v) DMSO and 10 nM labeled ligand at the following concentrations for each BRD4 isoform: 2 nM BRD4-1 and 0.5 nM BRD4-2. After an assay reaction time of 60 minutes at 25° C., binding was measured with 2 nM Eu-cryptate labeled anti-His antibody. TR-FRET signal was detected on an Envision plate reader (Ex: 320 nm; Em: 615/665 nm; 100 μs delay and 200 μs read window). Data were normalized based on a positive (2 μM I-BET) and negative (DMSO) controls and IC50 values were calculated from the fit of the dose-response curves to a four-parameter equation. All IC50 values represent geometric mean values of a minimum of four determinations. The IC50 values were converted to Ki values (dissociation constant for BRD4-inhibitor complex) using the Cheng and Prusoff equation for a competitive inhibitor mode of action. These assays generally produced results within 3-fold of the reported mean.

In data set [6] the test system is c-Myc produced in MM1S cells. The experiment in a line: c-Myc down regulation assay (MSD ELISA) in MM1S cells. Particulars: Homo sapiens, MM1.S, 24 hrs incubation, geometric mean, read-out: cMYC EC50. It counts as cell-based. How it is done:
An enzyme linked immunosorbent assay using the Meso Scale Diagnostic (MSD) technology was used to detect levels of c-Myc produced in MM1S cells (ATCC). MM1S cells were cultured in RPMI-1640 media (Corning), supplemented with 10% FBS (Hyclone), 1% penicillin-streptomycin (Cellgro), 2-mercaptoethanol (Gibco) and seeded onto 384-tissue culture treated filter binding plates (Millipore) at a density of 40K cells/well containing titrations of small molecule inhibitors or DMSO (0.4%) in a volume of 100 μl of media. After an incubation time of 24 hrs, cells were lysed (1× lysis buffer (Thermo) supplemented with protease and phosphatase inhibitor cocktail (Thermo)) and the plates centrifuged (1000 rpm, 1 min) to capture c-Myc on MSD plates coated with a monoclonal c-Myc antibody (Origene). Assay wells were washed (3× Invitrogen wash buffer) and probed with a polyclonal c-Myc antibody (Abcam) and MSD detection antibody solution in order to detect levels of c-Myc on the MSD platform. c-Myc capture was reported in pg/ml based on a standard curve using recombinant c-Myc protein (Prosci). EC50 values were calculated from the fit of the dose-response curves to a four-parameter equation. All EC50 values represent geometric mean values of a minimum of four determinations. These assays generally produced results within 3-fold of the reported mean.
For orientation: An ELISA detects its analyte on a solid surface through an enzyme-linked reagent.

In data set [7] the target is T1, BRD4-2. The experiment in a line: BRD4-2 Ligand KI assay (TR-FRET displacement of Cy5 labeled probe). It counts as binding. As to the method: as §2, with “BRD4-I” for “The labeled ligand specifically binds BRD4-1 and BRD4-2 and can be displaced by a small molecule inhibitor that shares a similar or overlapping binding site. BRD4-I”, “action.” for “action. These assays generally produced results within 3-fold of the reported mean.”

[8] abbreviates: Table 1, 50% decrease in luminescence signal.
Setting [9] is: Table 2, 50% decrease in luminescence signal.
[10] abbreviates: 10 nM labeled ligand, 2 nM BRD4-1, Ki from IC50 by Cheng and Prusoff, read-out: BRD4-1 Ligand K1.
The mark [11] stands for this setting: 10 nM labeled ligand, 0.5 nM BRD4-2, Ki from IC50 by Cheng and Prusoff, read-out: BRD4-2 Ligand K2.

Structures are written as SMILES. Where two headings read alike, the source gives them in different places.

Broadly, the IC50 is the point on the concentration scale where inhibition reaches its midpoint. As usually defined, the CC50 is the concentration giving 50% cytotoxicity. `Cc1noc(C)c1-c1cc(S(=O)(=O)NC2CCCC2)c2[nH]c(=O)[nH]c2c1` [Example 1, N-cyclopentyl-6-(3,5-dimethylisoxazol-4-yl)-2-oxo-2,3-dihydro-1H-benzo[d]imidazole-4-sulfonamide]: the IC50 on BRD4-2 [1] came to 1070 nM; at BRD4-1 [3], 1410 nM. Moreover, the CC50 at 5 days in data set [2] (setting [8]) was determined as 1120 nM.

For the compound `Cc1noc(C)c1-c1cc(-c2c(C)noc2C)c2[nH]c(=O)[nH]c2c1` [Example 3, 4,6-bis(3,5-dimethylisoxazol-4-yl)-1H-benzo[d]imidazol-2(3H)-one], the cytotoxic concentration (CC50) at 5 days in data set [2] (setting [8]) is 196 nM. Besides, the results for the half-inhibitory concentration (IC50) on BRD4-1 [3] and on BRD4-1 [4] were 295 nM and 119 nM, respectively.

Usually EC50 stands for the concentration needed to bring the measured effect to its halfway point. For the compound `Cc1noc(C)c1-c1cc(C(O)(c2ccccn2)c2ccccn2)c2[nH]c(=O)[nH]c2c1` [Example 133, 6-(3,5-dimethylisoxazol-4-yl)-4-(hydroxydi(pyridin-2-yl)methyl)-1H-benzo[d]imidazol-2(3H)-one], the figures for the Ki at BRD4-1 [5] and at BRD4-2 [7] were 40.3 nM and 15.8 nM, respectively. In addition, the EC50 in data set [6] was found to be 44.3 nM. Also, the half-maximal cytotoxic concentration (CC50) at 5 days in data set [2] (setting [9]) was determined as 25.5 nM.

For the compound `Cc1cccc(C(O)(c2cccc(C)n2)c2cc(-c3c(C)noc3C)cc3[nH]c(=O)[nH]c23)n1` [Example 134], the Ki on BRD4-1 [5] (setting [10]) stood at 69.9 nM; at BRD4-2 [7] (setting [11]) it was 5.3 nM. Also, the EC50 in data set [6] is 74.4 nM. Also, the CC50 at 5 days in data set [2] (setting [9]) stood at 19.1 nM.

For `Cc1noc(C)c1-c1cc(C(O)(CCC(F)(F)F)c2ccccn2)c2[nH]c(=O)[nH]c2c1` (stereo not shown) [Example 140, 6-(3,5-dimethylisoxazol-4-yl)-4-(4,4,4-trifluoro-1-hydroxy-1-(pyridin-2-yl)butyl)-1H-benzo[d]imidazol-2(3H)-one], the Ki on BRD4-1 [5] (setting [10]) turned out to be 35.2 nM; at BRD4-2 [7] (setting [11]), 43.8 nM. Besides, the EC50 in data set [6] amounted to 217 nM. In addition, the CC50 at 5 days in data set [2] (setting [9]) came to 78.3 nM.

As to `Cc1noc(C)c1-c1cc(C(O)(CC(C)(C)C)c2ccccn2)c2[nH]c(=O)[nH]c2c1` (stereo not shown) [Example 143, 6-(3,5-dimethylisoxazol-4-yl)-4-(1-hydroxy-3,3-dimethyl-1-(pyridin-2-yl)butyl)-1H-benzo[d]imidazol-2(3H)-one], the Ki at BRD4-1 [5] (setting [10]) worked out at 29.3 nM; at BRD4-2 [7] (setting [11]), 8 nM. Also, in data set [6], the EC50 was 118 nM. For the same compound, in data set [2] (setting [9]), the CC50 at 5 days amounted to 20.4 nM.

On to `Cc1cccc(C(O)(c2ccccn2)c2cc(-c3c(C)noc3C)cc3[nH]c(=O)[nH]c23)n1` (stereo not shown) [Example 147, 6-(3,5-dimethylisoxazol-4-yl)-4-(hydroxy(6-methylpyridin-2-yl)(pyridin-2-yl)methyl)-1H-benzo[d]imidazol-2(3H)-one], for which the results for the Ki at BRD4-1 [5] (setting [10]) and on BRD4-2 [7] (setting [11]) were 81.6 nM and 16 nM, respectively. The EC50 in data set [6] was found to be 107 nM. In addition, in data set [2] (setting [9]), the CC50 at 5 days was 56.5 nM.

For the compound `Cc1noc(C)c1-c1cc(C(O)(c2ccccc2)c2ccccn2)c2[nH]c(=O)[nH]c2c1` (stereo not shown) [Example 149, 6-(3,5-dimethylisoxazol-4-yl)-4-(hydroxy(phenyl)(pyridin-2-yl)methyl)-H benzo[d]imidazol-2(3H)-one], the figures for the Ki at BRD4-1 [5] (setting [10]) and on BRD4-2 [7] (setting [11]) were 17.3 nM and 4.6 nM, respectively. Besides, the EC50 in data set [6] came out at 73.8 nM. Also, in data set [2] (setting [9]), the CC50 at 5 days amounted to 17.5 nM.

As for `Cc1noc(C)c1-c1cc(C(O)(c2ccccn2)c2ccccn2)c2[nH]c(=O)[nH]c2c1F` [Example 169], the Ki at BRD4-1 [5] (setting [10]) is 62 nM; on BRD4-2 [7] (setting [11]), 33.5 nM. Moreover, the EC50 in data set [6] amounted to 128 nM. In addition, in data set [2] (setting [9]), the CC50 at 5 days came out at 41.4 nM.
